Source: article PMC10178848, “Modulating fast skeletal muscle contraction protects skeletal muscle in animal models of Duchenne muscular dystrophy” (The Journal of Clinical Investigation, 2023)

System: mdx mouse EDL muscle
Assay: Phosphoprotein array analysis (Cell Signaling Phospho Antibody Array)
Description: mdx mouse EDL muscle was prepared for ex vivo analysis as described (n = 5). Muscles were incubated for 1 hour with DMSO or EDG-5506 (5 μM) and then flash frozen in liquid nitrogen. Tissue preparation and analysis were performed as recommended by the manufacturer (Cell Signaling Phospho Antibody Array, Full Moon Biosystems).

O=c1ccc(-c2cnc(OCC(F)(F)F)nc2)nn1Cc1cncc(F)c1 [EDG-5506]
Data Normalized to Median Signal: CDK1/CDC2 (Phospho-Tyr15) (4000031744 (T)): 0.89
Data Normalized to Median Signal: CREB (Phospho-Ser133) (4000031744 (T)): 0.81
Data Normalized to Median Signal: CaMK2-beta/gamma/delta (Phospho-Thr287) (4000031744 (T)): 1.20
Data Normalized to Median Signal: CaMK2A (Phospho-Thr286) (4000031744 (T)): 0.85
Data Normalized to Median Signal: Caspase 8 (Phospho-Ser347) (4000031744 (T)): 1.06
Data Normalized to Median Signal: Caspase 9 (Phospho-Ser196) (4000031744 (T)): 2.98
Data Normalized to Median Signal: Catenin beta (Phospho-Thr41/Ser45) (4000031744 (T)): 0.90
Data Normalized to Median Signal: Chk2 (Phospho-Thr68) (4000031744 (T)): 0.66
Data Normalized to Median Signal: Cyclin D1 (Phospho-Thr286) (4000031744 (T)): 2.47
Data Normalized to Median Signal: Cyclin E1 (Phospho-Thr77) (4000031744 (T)): 1.57
Data Normalized to Median Signal: DARPP-32 (Phospho-Thr34) (4000031744 (T)): 0.93
Data Normalized to Median Signal: EEF2 (Phospho-Thr56) (4000031744 (T)): 1.33
Data Normalized to Median Signal: FADD (Phospho-Ser194) (4000031744 (T)): 2.10
Data Normalized to Median Signal: FAK (Phospho-Ser910) (4000031744 (T)): 1.62
Data Normalized to Median Signal: FGFR1 (Phospho-Tyr654) (4000031744 (T)): 2.43
Data Normalized to Median Signal: GRK2 (Phospho-Ser29) (4000031744 (T)): 1.51
Data Normalized to Median Signal: GSK3 alpha/beta (Phospho-Tyr216/279) (4000031744 (T)): 1.02
Data Normalized to Median Signal: Gab2 (Phospho-Tyr643) (4000031744 (T)): 4.36
Data Normalized to Median Signal: HDAC1 (Phospho-Ser421) (4000031744 (T)): 1.53
Data Normalized to Median Signal: HDAC2 (Phospho-Ser394) (4000031744 (T)): 1.45
Data Normalized to Median Signal: HSP90B (Phospho-Ser226) (4000031744 (T)): 2.09
Data Normalized to Median Signal: IKK-beta (Phospho-Tyr188) (4000031744 (T)): 1.11
Data Normalized to Median Signal: IKK-beta (Phospho-Tyr199) (4000031744 (T)): 1.14
Data Normalized to Median Signal: IKK-gamma (Phospho-Ser31) (4000031744 (T)): 0.98
Data Normalized to Median Signal: IL-4R/CD124 (Phospho-Tyr497) (4000031744 (T)): 1.35
Data Normalized to Median Signal: IL-10R-alpha (Phospho-Tyr496) (4000031744 (T)): 1.26
Data Normalized to Median Signal: IkB-alpha (Phospho-Ser32/36) (4000031744 (T)): 8.76
Data Normalized to Median Signal: Integrin beta-3 (Phospho-Tyr773) (4000031744 (T)): 0.89
Data Normalized to Median Signal: JunB (Phospho-Ser259) (4000031744 (T)): 0.90
Data Normalized to Median Signal: LYN (Phospho-Tyr507) (4000031744 (T)): 1.16
Data Normalized to Median Signal: Lamin A/C (Phospho-Ser392) (4000031744 (T)): 0.81
Data Normalized to Median Signal: MEK1 (Phospho-Ser217) (4000031744 (T)): 0.66
Data Normalized to Median Signal: NFkB-p65 (Phospho-Ser311) (4000031744 (T)): 0.96
Data Normalized to Median Signal: NFkB-p65 (Phospho-Ser529) (4000031744 (T)): 54.58
Data Normalized to Median Signal: NFkB-p100/p52 (Phospho-Ser865) (4000031744 (T)): 1.13
Data Normalized to Median Signal: P38 MAPK (Phospho-Thr180/Tyr182) (4000031744 (T)): 1.99
Data Normalized to Median Signal: P70S6K (Phospho-Ser424) (4000031744 (T)): 0.97
Data Normalized to Median Signal: P90RSK (Phospho-Thr359/Ser363) (4000031744 (T)): 1.39
Data Normalized to Median Signal: PDK1 (Phospho-Ser241) (4000031744 (T)): 1.70
Data Normalized to Median Signal: PLCG1 (Phospho-Tyr783) (4000031744 (T)): 7.48
Data Normalized to Median Signal: PLK1 (Phospho-Thr210) (4000031744 (T)): 0.61
Data Normalized to Median Signal: PP2A-alpha (Phospho-Tyr307) (4000031744 (T)): 0.97
Data Normalized to Median Signal: PPAR-gamma (Phospho-Ser112) (4000031744 (T)): 1.23
Data Normalized to Median Signal: Rb (Phospho-Ser807) (4000031744 (T)): 0.99
Data Normalized to Median Signal: RelB (Phospho-Ser552) (4000031744 (T)): 2.68
Data Normalized to Median Signal: SAPK/JNK (Phospho-Tyr185) (4000031744 (T)): 0.87
Data Normalized to Median Signal: SHP-2 (Phospho-Tyr542) (4000031744 (T)): 1.06
Data Normalized to Median Signal: STAT3 (Phospho-Tyr705) (4000031744 (T)): 0.90
Data Normalized to Median Signal: STAT4 (Phospho-Tyr693) (4000031744 (T)): 43.74
Data Normalized to Median Signal: STAT6 (Phospho-Thr645) (4000031744 (T)): 0.94
Data Normalized to Median Signal: SYK (Phospho-Tyr348) (4000031744 (T)): 1.04
Data Normalized to Median Signal: Smad1 (Phospho-Ser187) (4000031744 (T)): 1.71
Data Normalized to Median Signal: Smad2 (Phospho-Ser467) (4000031744 (T)): 1.05
Data Normalized to Median Signal: Smad2/3 (Phospho-Thr8) (4000031744 (T)): 2.11
Data Normalized to Median Signal: Smad3 (Phospho-Ser213) (4000031744 (T)): 1.56
Data Normalized to Median Signal: Src (Phospho-Tyr418) (4000031744 (T)): 9.05
Data Normalized to Median Signal: Tau (Phospho-Ser396) (4000031744 (T)): 0.88
Data Normalized to Median Signal: VEGFR2 (Phospho-Tyr1175) (4000031744 (T)): 0.88
Data Normalized to Median Signal: Zap-70 (Phospho-Tyr319) (4000031744 (T)): 1.25
Data Normalized to Median Signal: c-Jun (Phospho-Ser73) (4000031744 (T)): 0.98
Data Normalized to Median Signal: p44/42 MAP Kinase (Phospho-Tyr204) (4000031744 (T)): 0.86
Data Normalized to Median Signal: p53 (Phospho-Ser15) (4000031744 (T)): 1.59
Fold Change between Samples T/C: 4E-BP1 (Phospho-Thr45) (T vs C): 0.89
Fold Change between Samples T/C: ACC1 (Phospho-Ser80) (T vs C): 1.12
Fold Change between Samples T/C: AMPKbeta1 (Phospho-Ser182) (T vs C): 0.97
Fold Change between Samples T/C: B-RAF (Phospho-Ser446) (T vs C): 1.05
Fold Change between Samples T/C: BAX (Phospho-Thr167) (T vs C): 0.95
Fold Change between Samples T/C: BCL-XL (Phospho-Ser62) (T vs C): 1.23
Fold Change between Samples T/C: BLNK (Phospho-Tyr96) (T vs C): 0.62
Fold Change between Samples T/C: CBL (Phospho-Tyr700) (T vs C): 0.88
Fold Change between Samples T/C: CDK1/CDC2 (Phospho-Tyr15) (T vs C): 0.83
Fold Change between Samples T/C: CREB (Phospho-Ser133) (T vs C): 0.74
Fold Change between Samples T/C: CaMK2-beta/gamma/delta (Phospho-Thr287) (T vs C): 0.92
Fold Change between Samples T/C: CaMK2A (Phospho-Thr286) (T vs C): 0.86
Fold Change between Samples T/C: Caspase 8 (Phospho-Ser347) (T vs C): 1.08
Fold Change between Samples T/C: Caspase 9 (Phospho-Ser196) (T vs C): 0.94
Fold Change between Samples T/C: Catenin beta (Phospho-Thr41/Ser45) (T vs C): 0.83
Fold Change between Samples T/C: Chk2 (Phospho-Thr68) (T vs C): 0.51
Fold Change between Samples T/C: Cyclin D1 (Phospho-Thr286) (T vs C): 1.18
Fold Change between Samples T/C: Cyclin E1 (Phospho-Thr77) (T vs C): 1.02
Fold Change between Samples T/C: DARPP-32 (Phospho-Thr34) (T vs C): 0.91
Fold Change between Samples T/C: EEF2 (Phospho-Thr56) (T vs C): 1.12
Fold Change between Samples T/C: FADD (Phospho-Ser194) (T vs C): 1.53
Fold Change between Samples T/C: FAK (Phospho-Ser910) (T vs C): 1.09
Fold Change between Samples T/C: FGFR1 (Phospho-Tyr654) (T vs C): 1.35
Fold Change between Samples T/C: GRK2 (Phospho-Ser29) (T vs C): 1.26
Fold Change between Samples T/C: GSK3 alpha/beta (Phospho-Tyr216/279) (T vs C): 0.97
Fold Change between Samples T/C: Gab2 (Phospho-Tyr643) (T vs C): 1.59
Fold Change between Samples T/C: HDAC1 (Phospho-Ser421) (T vs C): 1.25
Fold Change between Samples T/C: HDAC2 (Phospho-Ser394) (T vs C): 0.90
Fold Change between Samples T/C: HSP90B (Phospho-Ser226) (T vs C): 1.00
Fold Change between Samples T/C: IKK-beta (Phospho-Tyr188) (T vs C): 1.01
Fold Change between Samples T/C: IKK-beta (Phospho-Tyr199) (T vs C): 0.84
Fold Change between Samples T/C: IKK-gamma (Phospho-Ser31) (T vs C): 0.98
Fold Change between Samples T/C: IL-4R/CD124 (Phospho-Tyr497) (T vs C): 0.93
Fold Change between Samples T/C: IL-10R-alpha (Phospho-Tyr496) (T vs C): 0.85
Fold Change between Samples T/C: IkB-alpha (Phospho-Ser32/36) (T vs C): 1.11
Fold Change between Samples T/C: Integrin beta-3 (Phospho-Tyr773) (T vs C): 0.93
Fold Change between Samples T/C: JunB (Phospho-Ser259) (T vs C): 0.79
Fold Change between Samples T/C: LYN (Phospho-Tyr507) (T vs C): 1.06
Fold Change between Samples T/C: Lamin A/C (Phospho-Ser392) (T vs C): 0.80
Fold Change between Samples T/C: MEK1 (Phospho-Ser217) (T vs C): 0.62
Fold Change between Samples T/C: NFkB-p65 (Phospho-Ser311) (T vs C): 1.00
Fold Change between Samples T/C: NFkB-p65 (Phospho-Ser529) (T vs C): 0.82
Fold Change between Samples T/C: NFkB-p100/p52 (Phospho-Ser865) (T vs C): 0.88
Fold Change between Samples T/C: P38 MAPK (Phospho-Thr180/Tyr182) (T vs C): 0.35
Fold Change between Samples T/C: P70S6K (Phospho-Ser424) (T vs C): 1.00
Fold Change between Samples T/C: P90RSK (Phospho-Thr359/Ser363) (T vs C): 0.95
Fold Change between Samples T/C: PDK1 (Phospho-Ser241) (T vs C): 1.14
Fold Change between Samples T/C: PLCG1 (Phospho-Tyr783) (T vs C): 2.25
Fold Change between Samples T/C: PLK1 (Phospho-Thr210) (T vs C): 0.60
Fold Change between Samples T/C: PP2A-alpha (Phospho-Tyr307) (T vs C): 0.93
Fold Change between Samples T/C: PPAR-gamma (Phospho-Ser112) (T vs C): 1.26
Fold Change between Samples T/C: Rb (Phospho-Ser807) (T vs C): 0.91
Fold Change between Samples T/C: RelB (Phospho-Ser552) (T vs C): 0.76
Fold Change between Samples T/C: SAPK/JNK (Phospho-Tyr185) (T vs C): 0.84
Fold Change between Samples T/C: SHP-2 (Phospho-Tyr542) (T vs C): 0.91
Fold Change between Samples T/C: STAT3 (Phospho-Tyr705) (T vs C): 0.92
Fold Change between Samples T/C: STAT4 (Phospho-Tyr693) (T vs C): 1.04
Fold Change between Samples T/C: STAT6 (Phospho-Thr645) (T vs C): 0.89
Fold Change between Samples T/C: SYK (Phospho-Tyr348) (T vs C): 0.91
Fold Change between Samples T/C: Smad1 (Phospho-Ser187) (T vs C): 1.60
Fold Change between Samples T/C: Smad2 (Phospho-Ser467) (T vs C): 1.00
Fold Change between Samples T/C: Smad2/3 (Phospho-Thr8) (T vs C): 1.25
Fold Change between Samples T/C: Smad3 (Phospho-Ser213) (T vs C): 1.26
Fold Change between Samples T/C: Src (Phospho-Tyr418) (T vs C): 0.77
